From patent US20250339569A1, “CARBONIC ANHYDRASE IX LIGANDS” (priority 2021, published 2025)
Where two headings read alike, the source gives them in different places.

Assay: Extended single-dose toxicity study including safety pharmacology endpoints, i.v. bolus (GLP)
Assay type: in vivo, beagle dogs
Conditions: for tlast: median; for half-life / clearance / AUC(0-t) / level at 5 min / Vd: beagle, plasma; for half-life: harmonic mean; for level at 5 min: read-out: C5 min; for Vd: read-out: Vss
Procedure: The following parameters and endpoints were evaluated: mortality, clinical observations, body weights, food consumption, body temperature, local reactions, ophthalmology, clinical pathology parameters (hematology, coagulation, clinical chemistry, and urinalysis), cardiovascular and respiratory safety pharmacology endpoints along with FOB evaluation, organ weights, and macroscopic and microscopic examinations, and TK parameters. The animals from subset A (3 males and 3 females per group) were sampled for toxicokinetics (TK) at: pre-dose, 5 min, 15 min, 30 min, 1 h, 2 h, 3 h and 6 h. Blood samples were collected in K2EDTA tubes. Plasma was prepared by centrifugation (2500 g for 10 minutes, +4° C.) within 1 hour after collection, and then frozen within 1 hour after centrifugation and stored at −80° C. […] Chromatographic separation was achieved using a Waters Acquity UPLC system with a Waters Acquity HSS T3 C18 2.1×50 mm, 1.8 μm column. Chromatography was conducted at 50° C. at a flow rate of 0.7 mL/min using a mobile phase consisting of A: 1% formic acid in acetonitrile, and B: 1% formic acid in water, according to the following linear gradient: 0 to 0.1 min: 90% B; 0.1 to 4.1 min: from 90% B to 74% B; 4.1 to 4.2 min: from 74% B to 5% B; 4.2 to 4.6 min: 5% B; 4.6 to 4.7 min: from 5% B to 90% B; 4.7-5.1 min; 90% B. Detection was performed using a Sciex API6600 TOF mass spectrometer. Toxicokinetic parameters were estimated from concentration-time data using Phoenix pharmacokinetic software (version 6.4, Certara L. P.). A non-compartmental approach consistent with the bolus intravenous injection was used for parameter estimation.
The test item treatment led to unaffected body weights, weight gains, and food intake. Likewise, no treatment-related abnormalities were reported during ophthalmic examinations, urinalysis, blood biochemistry, coagulation, and hematology investigations. There were no related organ weight changes and macroscopic and microscopic observations at early and late necropsies. Jacketed external telemetry was used to evaluate the potential cardiovascular and respiratory effects in the Subset B. Cardiorespiratory telemetry recordings were performed during the pre-test, Day 1 and 14. The electrocardiogram (ECG) parameters (heart rate, PQ interval duration, QRS complex duration, and QT interval duration) were collected continuously after dosing over 10-minute periods up to 6 h and over 15-minute periods up to 24 h. Miyazaki's QT correction method (Miyazaki, H. & Tagawa, M. Japanese Association for Laboratory Animal Science 2002, 51, 465-75) was used to correct the influence of heart rate. […] Arterial blood pressure parameters (systolic and diastolic blood pressure and mean arterial pressure) were measured continuously during consecutive 30-minute periods at pre-dose and for up to 6 h after dosing and over consecutive 60-minute periods up to 24 h after dosing. The respiratory rate was monitored on the pre-test, Day 1 and Day 14 at 0.5, 1, 2, 3, 4, 6, 8, 12, 16, 20, and 24 h. […] The potential effects on central nervous system parameters were evaluated under restrained and non-restrained conditions using a FOB in Subset A. Neurologic, autonomic, and behavioral investigations were performed in the pre-test, pre-dose, and 1 hour after dosing on Day 1.

[1] = dog, iv, 16 ug/kg, Female, 16 μg/kg single i.v. bolus, mean n = 3
[2] = dog, iv, 16 ug/kg, Male, 16 μg/kg single i.v. bolus, mean n = 3
[3] = dog, iv, 80 ug/kg, Female, 80 μg/kg single i.v. bolus, mean n = 3
[4] = dog, iv, 80 ug/kg, Male, 80 μg/kg single i.v. bolus, mean n = 3
[5] = dog, iv, 400 ug/kg, Female, 400 μg/kg single i.v. bolus, mean n = 3
[6] = dog, iv, 400 ug/kg, Male, 400 μg/kg single i.v. bolus, mean n = 3

## CC(C)C[C@@H]1NC(=O)[C@H](Cc2cccc(NC(=O)CCCS(N)(=O)=O)c2)NC(=O)[C@H](CC(=O)O)NC(=O)[C@H]2CCCN2C(=O)[C@H](CCC(=O)O)NC(=O)[C@@H](NC(=O)[C@H](CCC(N)=O)NC(=O)CN2CCN(C(=O)CN3CCN(CC(=O)O)CCN(CC(=O)O)CCN(CC(=O)O)CC3)CC2)CSCc2cccc(c2)CSC[C@@H](C(N)=O)NC(=O)[C@H](CO)NC(=O)[C@H](Cc2c[nH]c3ccccc23)NC(=O)[C@H]([C@@H](C)O)NC1=O [DPI-4452, DOTA-PPAc-Gln-[Cys(3MeBn)-Glu-pro-Asp-Af3(Cpsu)-Leu-Thr-Trp-Ser-Cys]-NH2]
60 kg human
  human equivalent dose of the NOAEL: 13.3 mg
1 hour after dosing, 16, 80, 400 μg/kg
  central nervous system effects (FOB): No effects were observed on the central nervous system
Female, 16 μg/kg single i.v. bolus
  tlast: 1 h
Female, 80 μg/kg single i.v. bolus
  tlast: 3 h
Female, 400 μg/kg single i.v. bolus, mean n = 3
  AUClast: 0.771 µg·h/mL
Female, 400 μg/kg single i.v. bolus
  tlast: 3 h
Male, 16 μg/kg single i.v. bolus
  tlast: 1 h
Male, 80 μg/kg single i.v. bolus
  tlast: 2 h
Male, 400 μg/kg single i.v. bolus, mean n = 3
  AUClast: 0.854 µg·h/mL
Male, 400 μg/kg single i.v. bolus
  tlast: 3 h
Beagle dogs, single i.v. bolus up to 400 μg/kg
  tolerability: well tolerated
dog, iv, 16 ug/kg, Female, 16 μg/kg single i.v. bolus
  half-life: 14.3 min
[1]
  clearance: 1.27 L/h/kg
  level at 5 min: 0.0377 µg/mL
  Vd: 0.3 L/kg
dog, iv, 16 ug/kg, Female, 16 μg/kg single i.v. bolus, mean n = 3, read-out: AUClast
  AUC(0-t): 0.0124 µg·h/mL
dog, iv, 16 ug/kg, Male, 16 μg/kg single i.v. bolus
  half-life: 15.5 min
[2]
  clearance: 1.1 L/h/kg
  level at 5 min: 0.0435 µg/mL
  Vd: 0.26 L/kg
dog, iv, 16 ug/kg, Male, 16 μg/kg single i.v. bolus, mean n = 3, read-out: AUClast
  AUC(0-t): 0.014 µg·h/mL
dog, iv, 80 ug/kg, Female, 80 μg/kg single i.v. bolus
  half-life: 23.2 min
[3]
  clearance: 0.556 L/h/kg
  level at 5 min: 0.346 µg/mL
  Vd: 0.21 L/kg
dog, iv, 80 ug/kg, Female, 80 μg/kg single i.v. bolus, mean n = 3, read-out: AUClast
  AUC(0-t): 0.144 µg·h/mL
dog, iv, 80 ug/kg, Male, 80 μg/kg single i.v. bolus
  half-life: 21.7 min
[4]
  clearance: 0.606 L/h/kg
  level at 5 min: 0.332 µg/mL
  Vd: 0.21 L/kg
dog, iv, 80 ug/kg, Male, 80 μg/kg single i.v. bolus, mean n = 3, read-out: AUClast
  AUC(0-t): 0.132 µg·h/mL
dog, iv, 400 ug/kg, Female, 400 μg/kg single i.v. bolus
  half-life: 21.8 min
[5]
  clearance: 0.518 L/h/kg
  level at 5 min: 1.76 µg/mL
  Vd: 0.19 L/kg
dog, iv, 400 ug/kg, Male, 400 μg/kg single i.v. bolus
  half-life: 23.7 min
[6]
  clearance: 0.473 L/h/kg
  level at 5 min: 1.84 µg/mL
  Vd: 0.19 L/kg
Both sexes, dog, in vivo, iv, beagle dogs, single i.v. bolus
  NOAEL at 14 days: 0.4 mg/kg
female, dog, iv, 400 ug/kg, females, 400 μg/kg i.v., read-out: mean AUCtlast at the NOAEL
  AUC(0-t): 0.771 µg·h/mL
Jacketed external telemetry, 16, 80, 400 μg/kg
  cardiovascular and respiratory safety pharmacology: no related effect on cardiovascular or respiratory parameters
male, dog, iv, 400 ug/kg, males, 400 μg/kg i.v., read-out: mean AUCtlast at the NOAEL
  AUC(0-t): 0.854 µg·h/mL
Total ligand mass dose 500 μg/patient
  NOAEL cover of the predicted human dose: more than 25 times
